Measurements: patent publication US20110251238A1, “PPAR AGONIST COMPOSITIONS AND METHODS OF USE” (BIOPHARMED, priority 2008, published 2011)
Converted amounts (≈) assume the structure as drawn. Where two headings read alike, the source gives them in different places.

Assays:
[1] = system: U373 (human glioblastoma-astrocytoma); experiment: Growth inhibition, MTT colorimetric assay, U373; assay type: cell-based; details: read-out: IC50 U373
Procedure: (§1) Compounds that met the criteria for activity on KB3 cells were further tested for drug growth inhibitory activity in 5 carcinoma, 6 glioma and 3 melanoma cell lines, shown in Table 4. A549 (human lung adenocarcinoma epithelial), BxPC3 (pancreatic cancer), LoVo (colon cancer), MCF-7 (epithelial breast cancer), PC3 (human prostate cancer), Hs683 (human glioma), T98G (glioblastoma), U373 (human glioblastoma-astrocytoma), U138 MG (human glioma), epithelial-like), SKMEL28 (human melanoma), B16-F10 (mouse melanoma) and RhTP (rhabdomyosarcoma) cell lines were cultured in presence of the drugs for 3 days. The cytotoxic activity is expressed as (IC50). Inhibition of cell proliferation measured by the MTT colorimetric assay. The values reported in Table 4 are means of six distinct values. The standard errors are <5% as compared to the mean values.

GL19 = experiment: Growth inhibition, MTT colorimetric assay, GL19; assay type: cell-based; details: read-out: IC50 GL19
Procedure: as §1

SKMEL28 (human melanoma) = experiment: Growth inhibition, MTT colorimetric assay, SKMEL-28; assay type: cell-based; details: read-out: IC50 SKMEL-28
Procedure: as §1

Hs683 (human glioma) = experiment: Growth inhibition, MTT colorimetric assay, HS683; assay type: cell-based; details: read-out: IC50 HS683
Procedure: as §1, with “A549” for “Compounds that met the criteria for activity on KB3 cells were further tested for drug growth inhibitory activity in 5 carcinoma, 6 glioma and 3 melanoma cell lines, shown in Table 4. A549”, “values.” for “values. The standard errors are <5% as compared to the mean values.”

Host = experiment: Growth inhibition, MTT colorimetric assay, Host; assay type: cell-based; details: read-out: IC50 Host
Procedure: as §1

[2] = system: bloodstream forms of T. brucei and T. congolense; experiment: Trypanocidal activity in vitro, Alamar Blue assay; assay type: cell-based, Trypanosoma brucei and T. congolense
Text: Trypanosoma brucei and T. congolense are the causative agents of sleeping sickness in humans and nagana in cattle, respectively. The protozoan parasites live extracellularlyin blood and tissue fluids of mammals and are transmitted by the bite of infected tsetse flies (Glossina spp.). Here the trypanocidal activity against bloodstream forms of T. brucei and T. congolense of bis-8-hydroxy quinoline N-substituted benzylamines derivatives was investigated in vitro, according to methods described in. Steverding et al. (2006) Kinetoplastid Biology and Disease, 5(3): 1-5; Hongmance et al., (2007) Antimicrob. Agents Chemother. 51:1105-1106; and Zhao et al., (2005) Bio-org. Med. Chem.; 13: 3921-3926. Cells were seeded into 96-well tissue culture plates in 200 μl medium containing various concentrations of analogues dissolved in H2O. The controls contained the respective solvent alone. […] After 24 h (trypanosomes) or 43 h (HL-60) incubation, 20 μl of the colorimetric viability indicator Alamar Blue® was added to each well. The cells were incubated for a further 24 h (trypanosomes) or 5 h (HL-60) so that the total incubation time was 48 h. Then, the plates were read on a Dynatech MR5000ELISA reader (Denkendorf, Germany),using a test wavelength of 550 nm and a reference wave length of 630 nm. Each test was set up in duplicate and repeated three times. For comparison, the general cytotoxicity of the compounds was assayed with human myeloid leukaemia HL-60 cells. The anti-trypanosomal activities and the general cytotoxicities of the new analogues were evaluated using the Alamar Blue® assay.

[3] = system: PC3 (human prostate cancer); experiment: Growth inhibition, MTT colorimetric assay, PC3; assay type: cell-based; details: read-out: IC50 PC3
Procedure: as §1

KaKa = experiment: Growth inhibition, MTT colorimetric assay, KaKa; assay type: cell-based; details: read-out: IC50 KaKa
Procedure: as §1

T98G (glioblastoma) = experiment: cells; assay type: cell-based; details: read-out: IC50 T98G
Procedure: as §1, with “A549” for “Compounds that met the criteria for activity on KB3 cells were further tested for drug growth inhibitory activity in 5 carcinoma, 6 glioma and 3 melanoma cell lines, shown in Table 4. A549”, “values.” for “values. The standard errors are <5% as compared to the mean values.”

[4] = system: BxPC3 (pancreatic cancer); experiment: Growth inhibition, MTT colorimetric assay, BxPC3; assay type: cell-based, human; details: read-out: IC50 BxPC3
Procedure: Cells are cultured at 37° C. in Falcon culture dishes, incubated at 5% CO2 in a suitable culture medium available from Invitrogen Corp. Anti-proliferative activity is determined by an MTT assay (bromide of (3-[4,5-dimethylthiazolium-yl]diphenyltetrazolium)). According to one standard protocol, absorbance is measured at 570 nm (see Dumont et al. (2007) Neoplasia 9: 766-776.
as §1, with “A549” for “Compounds that met the criteria for activity on KB3 cells were further tested for drug growth inhibitory activity in 5 carcinoma, 6 glioma and 3 melanoma cell lines, shown in Table 4. A549”, “values.” for “values. The standard errors are <5% as compared to the mean values.”

RhTP (rhabdomyosarcoma) = experiment: Growth inhibition, MTT colorimetric assay, RhTp; assay type: cell-based; details: read-out: IC50 RhTp
Procedure: as §1

B16-F10 (mouse melanoma) = experiment: Growth inhibition, MTT colorimetric assay, B16F10; assay type: cell-based; details: read-out: IC50 B16F10
Procedure: as §1

[5] = system: A549 (human lung adenocarcinoma epithelial); experiment: Growth inhibition, MTT colorimetric assay, A549; assay type: cell-based; details: read-out: IC50 A549
Procedure: as §1, with “A549” for “Compounds that met the criteria for activity on KB3 cells were further tested for drug growth inhibitory activity in 5 carcinoma, 6 glioma and 3 melanoma cell lines, shown in Table 4. A549”, “values.” for “values. The standard errors are <5% as compared to the mean values.”

[6] = system: MCF-7 (epithelial breast cancer); experiment: Growth inhibition, MTT colorimetric assay, MCF7; assay type: cell-based; details: read-out: IC50 MCF7
Procedure: as §1, with “A549” for “Compounds that met the criteria for activity on KB3 cells were further tested for drug growth inhibitory activity in 5 carcinoma, 6 glioma and 3 melanoma cell lines, shown in Table 4. A549”, “values.” for “values. The standard errors are <5% as compared to the mean values.”

U138 MG (human glioma) = experiment: Growth inhibition, MTT colorimetric assay, U138; assay type: cell-based; details: read-out: IC50 U138
Procedure: as §1

LoVo (colon cancer) = experiment: Growth inhibition, MTT colorimetric assay, LoVo; assay type: cell-based; details: read-out: IC50 LoVo
Procedure: as §1, with “A549” for “Compounds that met the criteria for activity on KB3 cells were further tested for drug growth inhibitory activity in 5 carcinoma, 6 glioma and 3 melanoma cell lines, shown in Table 4. A549”, “values.” for “values. The standard errors are <5% as compared to the mean values.”

[7] = system: KB3 (epitheloid lung cancer) cell lines; experiment: Cell growth inhibition (cytotoxicity), MTS assay, KB3 cell line; assay type: cell-based; details: KB3; Table 3A; MTS assay, triplicate; read-out: KB3 IC50
Procedure: Cell growth inhibition was determined by the MTS assay; the number of viable cells were proportional to the extent of formazan production in the presence or absence of drugs. […]

[8] = glioma, 3 days with drug, means of six values, unit inferred
[9] = 3 days with drug, means of six values, unit inferred
[10] = melanoma, 3 days with drug, means of six values, unit inferred
[11] = carcinoma, 3 days with drug, means of six values, unit inferred
[12] = 72 h, 3 days with drug, means of six values, unit inferred

## Oc1ccc(CN(Cc2ccc(O)c3ncccc23)CC2CCCCC2)c2cccnc12 [BPM19,219, 5,5′-cyclohexylmethylazanediyl-bis-[(methylene)di(quinolin-8-ol)]]
[1]; [8]
  IC50: 2570 nM
GL19; [9]
  IC50: 8970 nM
SKMEL28 (human melanoma); [10]
  IC50: > 10000 nM
Hs683 (human glioma); [8]
  IC50: 584 nM
Host; [9]
  IC50: 1540 nM
[2]; 50% growth inhibition, 48 h total incubation, read-out: GI50
  GI50: 2950 ± 180 nM
[2]; lowest concentration at which all cells were killed, 48 h total incubation, read-out: MIC
  MIC: 10 µM (≈ 4.28 µg/mL)
[3]; [11]
  IC50: 421 nM
KaKa; [9]
  IC50: 5940 nM
T98G (glioblastoma); [8]
  IC50: 486 nM
[4]; [11]
  IC50: 3810 nM
RhTP (rhabdomyosarcoma); [9]
  IC50: 865 nM
B16-F10 (mouse melanoma); [10]
  IC50: 873 nM
[5]; [11]
  IC50: 369 nM
[6]; [11]
  IC50: 365 nM
U138 MG (human glioma); [8]
  IC50: 446 nM
LoVo (colon cancer); [11]
  IC50: 357 nM

## Oc1ccc(CN(Cc2cccs2)Cc2ccc(O)c3ncccc23)c2cccnc12 [BPM18,202, 5,5′-(thiophen-2-ylmethylazanediyl)bis(methylene)diquinolin-8-ol]
[1]; Homo sapiens, U373 MG, 72 h
  IC50: 85 nM
GL19; GL19, 72 h
  IC50: 3450 nM
SKMEL28 (human melanoma); Homo sapiens, SK-MEL-28, 72 h
  IC50: 4830 nM
Hs683 (human glioma); Homo sapiens, Hs 683, 72 h
  IC50: 35 nM
Host; 72 h
  IC50: 1730 nM
[2]; 48 h
  GI50: 310 ± 10 nM
  MIC: 1 µM (≈ 0.428 µg/mL)
[3]; Homo sapiens, 72 h
  IC50: 44 nM
KaKa; 72 h
  IC50: 1760 nM
T98G (glioblastoma); Homo sapiens, T98G, 72 h
  IC50: 88 nM
[4]; Homo sapiens, BXPC-3, 72 h
  IC50: 89 nM
RhTP (rhabdomyosarcoma); 72 h
  IC50: 79 nM
[7]
  IC50: 2 nM
B16-F10 (mouse melanoma); Mus musculus, B16-F10, 72 h
  IC50: 86 nM
[5]; Homo sapiens, A549, 72 h
  IC50: 27 nM
[6]; Homo sapiens, MCF7, 72 h
  IC50: 35 nM
U138 MG (human glioma); Homo sapiens, U138-MG, 72 h
  IC50: 44 nM
LoVo (colon cancer); Homo sapiens, LoVo, 72 h
  IC50: 40 nM

## Oc1ccc(CN(Cc2cccc(I)c2)Cc2ccc(O)c3ncccc23)c2cccnc12 [BPM19,200, 5,5′-(3-iodobenzylazanediyl)bis(methylene)diquinolin-8-ol]
[1]; Homo sapiens, U373 MG, 72 h, glioma, 3 days with drug, means of six values, unit inferred
  IC50: 5600 nM
GL19; GL19, 72 h, 3 days with drug, means of six values, unit inferred
  IC50: > 10000 nM
SKMEL28 (human melanoma); Homo sapiens, SK-MEL-28, 72 h, melanoma, 3 days with drug, means of six values, unit inferred
  IC50: 9850 nM
Hs683 (human glioma); Homo sapiens, Hs 683, 72 h, glioma, 3 days with drug, means of six values, unit inferred
  IC50: 479 nM
Host; [12]
  IC50: 2980 nM
[3]; Homo sapiens, 72 h, carcinoma, 3 days with drug, means of six values, unit inferred
  IC50: 394 nM
KaKa; [12]
  IC50: 7680 nM
T98G (glioblastoma); Homo sapiens, T98G, 72 h, glioma, 3 days with drug, means of six values, unit inferred
  IC50: 446 nM
[4]; Homo sapiens, BXPC-3, 72 h, carcinoma, 3 days with drug, means of six values, unit inferred
  IC50: 3810 nM
RhTP (rhabdomyosarcoma); [12]
  IC50: 788 nM
[7]
  IC50: 1000 nM
B16-F10 (mouse melanoma); Mus musculus, B16-F10, 72 h, melanoma, 3 days with drug, means of six values, unit inferred
  IC50: 888 nM
[5]; Homo sapiens, A549, 72 h, carcinoma, 3 days with drug, means of six values, unit inferred
  IC50: 350 nM
[6]; Homo sapiens, MCF7, 72 h, carcinoma, 3 days with drug, means of six values, unit inferred
  IC50: 374 nM
U138 MG (human glioma); Homo sapiens, U138-MG, 72 h, glioma, 3 days with drug, means of six values, unit inferred
  IC50: 430 nM
LoVo (colon cancer); Homo sapiens, LoVo, 72 h, carcinoma, 3 days with drug, means of six values, unit inferred
  IC50: 393 nM
